Results from patent US9006451B1, “2-anilinonicotinyl based chalcones useful as potential anticancer agents and process for preparation thereof” (Council of Scientific and Industrial Research, priority 2013, dated 2015).

Legend:
Format in all cases: cell-based
[1] = test system: IGROV1; test: NCI 60 human tumor cell line screen (SRB): IGROV1; settings: IGROV-1, IGROV1, Ovarian, 48 hours, read-out: GI50 values (μM conc.)
Protocol: (§1) The in vitro anticancer activity studies for these chalcone analogues were carried out at the National Cancer Institute, USA.
(§2) The chalcone compounds have been tested at NCI, USA, against sixty human tumor cell lines derived from nine cancer types (leukemia, non-small cell lung cancer, colon cancer, CNS cancer, melanoma cancer, ovarian cancer, renal cancer, prostate cancer and breast cancer). For these compounds results are expressed as growth inhibition (GI50) values as per NCI protocol.
(§3) We describe here the development and implementation of a pilot-scale, in vitro, anticancer drug screen utilizing a panel of 60 human tumor cell lines organized into subpanels representing leukemia, melanoma, and cancers of the lung, colon, kidney, ovary, and central nervous system. The ultimate goal of this disease-oriented screen is to facilitate the discovery of new compounds with potential cell line-specific and/or subpanel-specific antitumor activity. In the current screening protocol, each cell line is inoculated onto microtiter plates, then preincubated for 28 hours. Subsequently, test agents are added in five 10-fold dilutions and the culture is incubated for an additional 48 hours. For each test agent, a dose-response profile is generated. End-point determinations of the cell viability or cell growth are performed by in situ fixation of cells, followed by staining with a protein-binding dye, sulforhodamine B (SRB). The SRB binds to the basic amino acids of cellular macromolecules; the solubilized stain is measured spectrophotometrically to determine relative cell growth or viability in treated and untreated cells.

[2] = test system: NCI/ADR-RES; test: NCI 60 human tumor cell line screen (SRB): NCI/ADR-RES; settings: Ovarian, 48 hours, read-out: GI50 values (μM conc.)
Protocol: as §1, §2, §3

[3] = test system: SK-MEL-28; test: NCI 60 human tumor cell line screen (SRB): SK-MEL-28; settings: SK-MEL-28, Melanoma, 48 hours, read-out: GI50 values (μM conc.)
Protocol: as §1, §2, §3

[4] = test system: COLO-205; test: NCI 60 human tumor cell line screen (SRB): COLO-205; settings: COLO-205, Colon, 48 hours, read-out: GI50 values (μM conc.)
Protocol: as §1, §2, §3

[5] = test system: SW-620; test: NCI 60 human tumor cell line screen (SRB): SW-620; settings: SW-620, Colon, 48 hours, read-out: GI50 values (μM conc.)
Protocol: as §1, §2, §3

[6] = test system: MDA-MB-231/ATCC; test: NCI 60 human tumor cell line screen (SRB): MDA-MB-231/ATCC; settings: Breast, 48 hours, read-out: GI50 values (μM conc.)
Protocol: as §1, §2, §3

[7] = test system: OVCAR-8; test: NCI 60 human tumor cell line screen (SRB): OVCAR-8; settings: OVCAR-8, Ovarian, 48 hours, read-out: GI50 values (μM conc.)
Protocol: as §1, §2, §3

[8] = test system: RPMI-8226; test: NCI 60 human tumor cell line screen (SRB): RPMI-8226; settings: RPMI-8226, Leukemia, 48 hours, read-out: GI50 values (μM conc.)
Protocol: as §1, §2, §3

[9] = test system: NCI-H23; test: NCI 60 human tumor cell line screen (SRB): NCI-H23; settings: NCI-H23, Non-small cell lung, 48 hours, read-out: GI50 values (μM conc.)
Protocol: as §1, §2, §3

[10] = test system: SN12C; test: NCI 60 human tumor cell line screen (SRB): SN12C; settings: Renal, 48 hours, read-out: GI50 values (μM conc.)
Protocol: as §1, §2, §3

[11] = test system: CCRF-CEM; test: NCI 60 human tumor cell line screen (SRB): CCRF-CEM; settings: Leukemia, 48 hours, read-out: GI50 values (μM conc.)
Protocol: as §1, §2, §3

[12] = test system: UACC-62; test: NCI 60 human tumor cell line screen (SRB): UACC-62; settings: UACC-62, Melanoma, 48 hours, read-out: GI50 values (μM conc.)
Protocol: as §1, §2, §3

[13] = test system: EKVX; test: NCI 60 human tumor cell line screen (SRB): EKVX; settings: Non-small cell lung, 48 hours, read-out: GI50 values (μM conc.)
Protocol: as §1, §2, §3

[14] = test system: HCT-116; test: NCI 60 human tumor cell line screen (SRB): HCT-116; settings: HCT-116, Colon, 48 hours, read-out: GI50 values (μM conc.)
Protocol: as §1, §2, §3

[15] = test system: PC-3; test: NCI 60 human tumor cell line screen (SRB): PC-3; settings: PC-3, Prostate, 48 hours, read-out: GI50 values (μM conc.)
Protocol: as §1, §2, §3

[16] = test system: SK-OV-3; test: NCI 60 human tumor cell line screen (SRB): SK-OV-3; settings: SK-OV-3, Ovarian, 48 hours, read-out: GI50 values (μM conc.)
Protocol: as §1, §2, §3

[17] = test system: HCT-15; test: NCI 60 human tumor cell line screen (SRB): HCT-15; settings: HCT-15, Colon, 48 hours, read-out: GI50 values (μM conc.)
Protocol: as §1, §2, §3

[18] = test system: LOX IMVI; test: NCI 60 human tumor cell line screen (SRB): LOX IMVI; settings: Melanoma, 48 hours, read-out: GI50 values (μM conc.)
Protocol: as §1, §2, §3

[19] = test system: RXF 393; test: NCI 60 human tumor cell line screen (SRB): RXF 393; settings: RXF 393, Renal, 48 hours, read-out: GI50 values (μM conc.)
Protocol: as §1, §2, §3

[20] = test system: NCI-H322M; test: NCI 60 human tumor cell line screen (SRB): NCI-H322M; settings: Non-small cell lung, 48 hours, read-out: GI50 values (μM conc.)
Protocol: as §1, §2, §3

[21] = test system: SNB-19; test: NCI 60 human tumor cell line screen (SRB): SNB-19; settings: SNB-19, CNS, 48 hours, read-out: GI50 values (μM conc.)
Protocol: as §1, §2, §3

[22] = test system: MDA-MB-468; test: NCI 60 human tumor cell line screen (SRB): MDA-MB-468; settings: MDA-MB-468, Breast, 48 hours, read-out: GI50 values (μM conc.)
Protocol: as §1, §2, §3

[23] = test system: DU-145; test: NCI 60 human tumor cell line screen (SRB): DU-145; settings: DU-145, Prostate, 48 hours, read-out: GI50 values (μM conc.)
Protocol: as §1, §2, §3

[24] = test system: MDA-MB-435; test: NCI 60 human tumor cell line screen (SRB): MDA-MB-435; settings: MDA-MB-435, Melanoma, 48 hours, read-out: GI50 values (μM conc.)
Protocol: as §1, §2, §3

[25] = test system: A498; test: NCI 60 human tumor cell line screen (SRB): A498; settings: A498, Renal, 48 hours, read-out: GI50 values (μM conc.)
Protocol: as §1, §2, §3

[26] = test system: SF-268; test: NCI 60 human tumor cell line screen (SRB): SF-268; settings: SF-268, CNS, 48 hours, read-out: GI50 values (μM conc.)
Protocol: as §1, §2, §3

[27] = test system: SR; test: NCI 60 human tumor cell line screen (SRB): SR; settings: Leukemia, 48 hours, read-out: GI50 values (μM conc.)
Protocol: as §1, §2, §3

[28] = test system: SNB-75; test: NCI 60 human tumor cell line screen (SRB): SNB-75; settings: SNB-75, CNS, 48 hours, read-out: GI50 values (μM conc.)
Protocol: as §1, §2, §3

[29] = test system: HOP-92; test: NCI 60 human tumor cell line screen (SRB): HOP-92; settings: HOP-92, Non-small cell lung, 48 hours, read-out: GI50 values (μM conc.)
Protocol: as §1, §2, §3

Compound | GI50 [1] [µM] | GI50 [2] [µM] | GI50 [3] [µM] | GI50 [4] [µM] | GI50 [5] [µM] | GI50 [6] [µM] | GI50 [7] [µM] | GI50 [8] [µM] | GI50 [9] [µM] | GI50 [10] [µM] | GI50 [11] [µM] | GI50 [12] [µM] | GI50 [13] [µM] | GI50 [14] [µM] | GI50 [15] [µM] | GI50 [16] [µM] | GI50 [17] [µM] | GI50 [18] [µM] | GI50 [19] [µM] | GI50 [20] [µM] | further results
COc1cc(Nc2ncccc2/C=C/C(=O)c2cc(OC)c(OC)c(OC)c2)cc(OC)c1OC [6v, (E)-1-(3,4,5-Trimethoxyphenyl)-3-(2-(3,4,5-trimethoxyphenylamino)pyridin-3-yl)prop-2-en-1-one] | 12.6 | 4.44 | 5.43 | 4.44 | 4.81 | 12.6 | 6.7 | 6.83 | 10.2 | 5.1 | 7.08 | 4.96 | 7.55 | 3.77 | 7.81 | 11.1 | 5.02 | 4.51 | 5.22 | 21.1 | GI50 [21]: 6.8 µM; GI50 [22]: 6.78 µM; GI50 [23]: 6.22 µM; GI50 [24]: 5.63 µM; GI50 [25]: 2.64 µM; GI50 [26]: 8.19 µM; GI50 [27]: 3.6 µM; GI50 [28]: 4.12 µM; GI50 [29]: 0.94 µM
COc1cc(C(=O)/C=C/c2cccnc2Nc2ccc(Cl)cc2)cc(OC)c1OC [6ax, (E)-3-(2-(4-Chlorophenylamino)pyridin-3-yl)-1-(3,4,5-trimethoxyphenyl)prop-2-en-1-one] | 2.24 | 1.64 | 1.72 | 1.83 | 0.95 | 1.49 | 1.63 | 0.65 | 1.58 | 1.46 | 0.37 | 1.54 | 1.61 | 0.56 | 1.44 | 1.72 | 1.49 | 1.27 | 1.26 | 1.95 | GI50 [21]: 1.52 µM; GI50 [22]: 1.29 µM; GI50 [23]: 1.63 µM; GI50 [24]: 1.49 µM; GI50 [25]: 1.4 µM; GI50 [26]: 1.72 µM; GI50 [27]: 0.77 µM; GI50 [28]: 1.63 µM; GI50 [29]: 0.51 µM
COc1ccc(Nc2ncccc2/C=C/C(=O)c2cc(OC)c(OC)c(OC)c2)cc1 [6h, (E)-3-(2-(4-Methoxyphenylamino)pyridin-3-yl)-1-(3,4,5-trimethoxyphenyl)prop-2-en-1-one] | 2 | 2.23 | 1.37 | 1.69 | 1.2 | 1.94 | 1.56 | 1.08 | 1.72 | 1.56 | 0.5 | 1.56 | 1.8 | 1.02 | 2.82 | 2.72 | 1.66 | 1.23 | 1.49 | 2.13 | GI50 [21]: 2.14 µM; GI50 [22]: 1.15 µM; GI50 [23]: 1.59 µM; GI50 [24]: 1.46 µM; GI50 [25]: 3.19 µM; GI50 [26]: 1.77 µM; GI50 [27]: 0.46 µM; GI50 [28]: 1.15 µM; GI50 [29]: 1.59 µM
COc1ccc(C(=O)/C=C/c2cccnc2Nc2cc(OC)c(OC)c(OC)c2)cc1 [6z, (E)-1-(4-Methoxyphenyl)-3-(2-(3,4,5-trimethoxyphenylamino)pyridin-3-yl)prop-2-en-1-one] | 4.64 | 1.38 | 3.72 | 1.54 | 0.39 | 2.15 | 2.2 | 0.85 | 4.02 | 1.91 | 0.71 | 1.9 | 10.8 | 0.53 | 1.13 | 3.15 | 0.91 | 1.12 | 1.68 | 7.38 | GI50 [21]: 2.87 µM; GI50 [22]: 0.77 µM; GI50 [23]: 2.59 µM; GI50 [24]: 0.74 µM; GI50 [25]: 4.28 µM; GI50 [26]: 3.13 µM; GI50 [27]: 0.09 µM; GI50 [28]: 2.44 µM; GI50 [29]: 2.4 µM
COc1cc(C(=O)/C=C/c2cccnc2Nc2ccccc2)cc(OC)c1OC [6a, (E)-3-(2-(Phenylamino)pyridin-3-yl)-1-(3,4,5-trimethoxyphenyl)prop-2-en-1-one] | 2.37 | 1.03 | 1.58 | 1.29 | 0.42 | 1.4 | 1.27 | 0.35 | 1.43 | 1.21 | 0.32 | 1.29 | 1.61 | 0.33 | 1.1 | 1.6 | 0.74 | 0.49 | 1.12 | 1.9 | GI50 [21]: 1.48 µM; GI50 [22]: 0.66 µM; GI50 [23]: 0.72 µM; GI50 [24]: 0.63 µM; GI50 [25]: 1.42 µM; GI50 [26]: 1.55 µM; GI50 [27]: 0.34 µM; GI50 [28]: 1.13 µM; GI50 [29]: 0.39 µM
COc1cc(/C=C/C(=O)c2cccnc2Nc2ccc(F)cc2)cc(OC)c1OC [7f, (E)-1-(2-(4-Fluorophenylamino)pyridin-3-yl)-3-(3,4,5-trimethoxyphenyl)prop-2-en-1-one] | 7.42 | 2.37 | 3.22 | 2.64 | 3.3 | 3.07 | 2.69 | 2.43 | 2.34 | 3.23 | 2.45 | 2.35 | 3.94 | 1.54 | 3.95 | 3.1 | 2.27 | 1.69 | 2.81 | 4.83 | GI50 [21]: 3.73 µM; GI50 [22]: 1.77 µM; GI50 [23]: 3.32 µM; GI50 [24]: 3.05 µM; GI50 [25]: 2.18 µM; GI50 [26]: 4.18 µM; GI50 [27]: 1.93 µM; GI50 [28]: 1.93 µM; GI50 [29]: 1.67 µM
